Assay results as given in patent US9969617B2, “Material system containing endoperoxide with adaption of decomposition, and applications” (priority 2009, dated 2018).

What was measured:
cancer cells = test: killing of cancer cells, cytostatic effect confirmed using the crystal violet test; type: cell-based; conditions: endoperoxide in liposomes
Description: A further molecule 22 forming endoperoxide has an additional hydroxyl group which with the cage wall can form hydrogen bridges (preferably in PVB nanoparticles, in PVB films or ethyl cellulose nanoparticles), which likewise causes an increase in the decomposition times.

[1] = PVB matrix, 37° C.
Description: The entire decomposition curve is usually determined indirectly via the measurement of the fluorescence of the DMN molecules which reappear during decomposition of the endoperoxides.

Row | SMILES | killing of the cancer cells (cancer cells) | decomposition time of curve 27, factor longer than DMN in liquids ([1]; after renewed endoperoxide formation, slow component (curve 27)) [factor] | half-life from curve 24 greater than that for DMN in organic solvent ([1]; curve 24 versus DMN in organic solvent) | decomposition time from curve 25, factor greater ([1]; first decomposition, slow component (curve 25), compared with DMN in organic solvent) [factor]
1 | CC12C=CC(C)(OO1)c1ccccc12 [DMN endoperoxide, 1,4-dimethylnaphthalene endoperoxide] | not | > 30 | approximately 30% | ~6
2 | Cc1cccc2c1C1(C)C=CC2(C)OO1 (centres unmarked) [TMN endoperoxide] | killing of the cancer cells was ascertained |  |  | 
